This note sets out measurements from ChEMBL document CHEMBL1143131, “Synthesis and anti-HIV activity of GS-9148 (2'-Fd4AP), a novel nucleoside phosphonate HIV reverse transcriptase inhibitor” (Bioorg Med Chem Lett, 2008).

Data set [1] relates to Human immunodeficiency virus. The experiment in a line: Antiviral activity against HIV with reverse transcriptase 6TAMs mutation assessed as fold resistance relative to wild type. Type of data set: functional.
The subject of data set [2] is Human immunodeficiency virus. The experiment in a line: Antiviral activity against HIV with reverse transcriptase K65R mutation assessed as fold resistance relative to wild type. It counts as functional.
Data set [3] in a line: Cytotoxicity against human MT2 cells. Type of data set: cell-based.
In data set [4] the test system is Human immunodeficiency virus. The experiment in a line: Antiviral activity against HIV with reverse transcriptase M184V mutation assessed as fold resistance relative to wild type. It counts as functional.
Data set [5] concerns Human immunodeficiency virus 1. The experiment in a line: Antiviral activity against wild type HIV1 3B in MT2 cells. Type of data set: functional, organism-based. Conditions: Human immunodeficiency virus 1, 3B.
Data set [6] addresses Human immunodeficiency virus type 1 reverse transcriptase (Human immunodeficiency virus 1, UniProt Q72547). The experiment in a line: Inhibition of wild type HIV 3B reverse transcriptase.

As for `Nc1ncnc2c1ncn2[C@@H]1C=C[C@H](OCP(=O)(O)O)O1`, the values for the Activity in data set [1], in data set [2] and in data set [4] were 13.7, 3.6 and 7.1, respectively. The compound also had a 50% cytotoxic concentration (CC50) in data set [3] greater than 1000 µM. This compound also showed an EC50 in data set [5] of 5.9 µM.

Take `Nc1ncnc2c1ncn2[C@H]1C=C[C@@H](OCP(=O)(O)O)O1`: the Activity amounted to 2.9 in data set [1], 2.9 in data set [2] and 0.9 in data set [4]. In data set [6], this compound displayed an IC50 of 0.6 µM. This compound also returned a CC50 in data set [3] greater than 1000 µM. The compound also came in with an EC50 in data set [5] of 2.1 µM.

For the compound `Nc1ncnc2c1ncn2[C@@H]1O[C@H](OCP(=O)(O)O)C=C1F` [GS-9148], the Activity in data set [1] was determined as 4.3; in data set [2], 1.1; in data set [4], 0.8. In data set [6], this compound returned a half-inhibitory concentration (IC50) of 1.9 µM. Moreover, the CC50 in data set [3] is greater than 1000 µM.

On to `C[C@H](Cn1cnc2c(N)ncnc21)OCP(=O)(O)O` [TENOFOVIR ANHYDROUS], for which the Activity in data set [1] is listed as 8.8; in data set [2], 4.3; in data set [4], 0.7. The same compound had a CC50 in data set [3] greater than 500 µM.

As for `Cc1cn([C@H]2C[C@H](N=[N+]=[N-])[C@@H](CO)O2)c(=O)[nH]c1=O` [ZIDOVUDINE], the figures for the Activity in data set [1], in data set [2] and in data set [4] were greater than 50, 1.2 and 0.7, respectively. The same compound came in with a CC50 in data set [3] greater than 200 µM. This compound came in with an EC50 in data set [5] of 0.16 µM.

One may read the CC50 as the concentration at which the toxic effect on the cells reaches its halfway point. A high value points to better tolerance by the cells. A word on the EC50: it is the concentration that produces a half-maximal response. Read a low EC50 as higher potency in that assay. Usually IC50 stands for the concentration that inhibits the measured activity by half. A lower IC50 goes with greater potency in that assay.
